Source: PubChem BioAssay AID624323 (Sanford-Burnham Center for Chemical Genomics, 2012)
≈ marks a conversion by molar mass, not a printed value. Calls of active or inactive are those of the source. How the calls were made is not given here.

Test system: aqueous buffer solubility, pH 5.0/6.2/7.4
Experiment: compound solubility, pH 5.0, 6.2, 7.4 – biophysical, set 2, ADME assay (AID 624323)
Settings: at 100 µM, stronger effect = higher value
[1] = measured here: solubility at pH 5.0
[2] = measured here: solubility at pH 6.2

| Structure (SMILES) | solubility | solubility [1] [µg/mL] | solubility [2] [µg/mL] |
| --- | --- | --- | --- |
| O=C1C2CC=CCC2C(=O)N1c1n[nH]c(-c2ccccc2)n1 (stereo not drawn) | > 29 µg/mL | 16 (≈ 54.4 µM) | 20.2 (≈ 68.6 µM) |
| CN(C)c1nc(N)nc(CSc2nnnn2-c2cccc3ccccc23)n1 | 1 µg/mL (inactive) (≈ 2.64 µM) | 2.8 (≈ 7.38 µM) | 1 (≈ 2.64 µM) |
| c1ccc(-c2nnc(N3CCOCC3)nc2-c2ccccc2)cc1 | 2.3 µg/mL (inactive) (≈ 7.22 µM) | 2 (≈ 6.28 µM) | 1.8 (≈ 5.65 µM) |
| O=S(=O)(NC1CCCCC1N1CCOCC1)c1ccc(Cl)cc1 (stereo not drawn) | 26.2 µg/mL (≈ 73 µM) | > 36 | > 36 |
| c1ccc2c(Nc3nnc(-c4ccncc4)s3)cccc2c1 | 3.5 µg/mL (inactive) (≈ 11.5 µM) | 3.3 (≈ 10.8 µM) | 3.5 (≈ 11.5 µM) |
| COc1cc(NC(=O)c2cc(C3CC3)on2)c(OC)cc1Cl | 0.06 µg/mL (inactive) (≈ 0.186 µM) | < 0.01 | 0.05 (≈ 0.155 µM) |
| Cc1cc(-c2nnc3n2CCCCC3)c(C)n1-c1ccccc1 | > 30 µg/mL | > 30 | > 30 |
| CCOc1ccc(NC(=S)N2CCC(C(O)(c3ccccc3)c3ccccc3)CC2)cc1 | 0.37 µg/mL (inactive) (≈ 0.828 µM) | 1.1 (≈ 2.46 µM) | 0.8 (≈ 1.79 µM) |
| CCCc1cc(C(=O)N(C2CCCCC2)C2CCCCC2)no1 | 1.3 µg/mL (inactive) (≈ 4.08 µM) | 2.1 (≈ 6.59 µM) | 2 (≈ 6.28 µM) |
| Cc1ccnc(NC(=O)CCCOc2cc(=O)n(C)c3ccccc23)c1 | 9.1 µg/mL (inactive) (≈ 25.9 µM) | 19 (≈ 54.1 µM) | 9.3 (≈ 26.5 µM) |
| O=S1(=O)Nc2c(ccc3cccnc23)-c2ccccc21 | > 2.8 µg/mL (inactive) | 9.6 (≈ 34 µM) | 13.6 (≈ 48.2 µM) |
| O=C(O)CCC(NS(=O)(=O)c1ccc(-c2ccccc2)cc1)C(=O)O (stereo not drawn) | > 36 µg/mL | > 36 | > 36 |
| CC(C)C(=O)NC(c1ccco1)c1ccc2cccnc2c1O (stereo not drawn) | 3.3 µg/mL (inactive) (≈ 10.6 µM) | 2.8 (≈ 9.02 µM) | 2.7 (≈ 8.7 µM) |
| Cc1ccc(NS(=O)(=O)c2ccc3c(c2)CCC(=O)N3)cc1C | 27.1 µg/mL (≈ 82 µM) | 26.2 (≈ 79.3 µM) | > 33 |
| Cc1cc(C)nc(-n2nc(C)c(Sc3ccc(F)cc3)c2N)n1 | 9.3 µg/mL (inactive) (≈ 28.2 µM) | 5.6 (≈ 17 µM) | 8.6 (≈ 26.1 µM) |
| Cc1ccccc1N1CCN(c2ncnc3c2cnn3Cc2ccc(Cl)cc2)CC1 | < 0.01 µg/mL (inactive) | 0.03 (≈ 0.0716 µM) | < 0.01 |
| CN(C)c1oc(-c2ccc(OCc3ccc(Cl)cc3)cc2)nc1C#N | 0.08 µg/mL (inactive) (≈ 0.226 µM) | 0.17 (≈ 0.48 µM) | < 0.01 |
| O=c1c2ccccc2[se]n1-c1ccccc1 | 5.6 µg/mL (inactive) (≈ 20.4 µM) | 5 (≈ 18.2 µM) | 6 (≈ 21.9 µM) |
| O=C(O)c1ccccc1OCc1ccccc1Br | > 30 µg/mL | > 30 | > 30 |
| Cc1ccc(NC(=O)CCC(=O)N/N=C/c2ccc([N+](=O)[O-])o2)cc1C | 0.29 µg/mL (inactive) (≈ 0.809 µM) | 0.19 (≈ 0.53 µM) | 0.3 (≈ 0.837 µM) |
| N#Cc1ccccc1CSc1nc2ncc(Br)cc2[nH]1 | 0.54 µg/mL (inactive) (≈ 1.56 µM) | 0.42 (≈ 1.22 µM) | 0.52 (≈ 1.51 µM) |
| O=C(CSc1cccc2cccnc12)N1CCCC1 | > 27 µg/mL | > 27 | > 27 |

| Structure (SMILES) | solubility | solubility [1] [µg/mL] | solubility [2] [µg/mL] |
| --- | --- | --- | --- |
| Cc1ccc(C(=O)n2c3ccccc3c3ccccc32)cc1 | < 0.01 µg/mL (inactive) | < 0.01 | < 0.01 |
| Cc1ccc(S(=O)(=O)n2c(N)nc3ccccc32)cc1 | 2.4 µg/mL (inactive) (≈ 8.35 µM) | 2.3 (≈ 8 µM) | 2.4 (≈ 8.35 µM) |
| Cn1nnnc1Sc1ncnc2scc(-c3ccccc3)c12 | 3.5 µg/mL (inactive) (≈ 10.7 µM) | 2.9 (≈ 8.88 µM) | 3.1 (≈ 9.5 µM) |
| CC1CCCN(C(C(=O)Nc2ccc3c(c2)OCCO3)c2ccccc2)C1 (stereo not drawn) | 1.7 µg/mL (inactive) (≈ 4.64 µM) | > 36 | > 36 |
| CC(C)(C)OC(=O)NCCc1nnc(S(=O)(=O)Cc2ccc(Cl)cc2Cl)o1 | 7.4 µg/mL (inactive) (≈ 17 µM) | 14.6 (≈ 33.5 µM) | 4.8 (≈ 11 µM) |
| CCCN(CCC)CCNC(=O)C1CCN(Cc2nc(-c3ccc(Cl)cc3)oc2C)CC1 | > 46 µg/mL | > 46 | > 46 |
| COc1ccc(S(=O)(=O)n2nc(OC(=O)c3ccccc3)cc2N)cc1 | 14.9 µg/mL (≈ 39.9 µM) | 0.46 (≈ 1.23 µM) | 2 (≈ 5.36 µM) |
| Brc1ccc2c(c1)CN1CCCC1=N2 | > 25 µg/mL | > 25 | > 25 |
| c1ccc(CC2CCN(c3ncnc4sccc34)CC2)cc1 | < 0.01 µg/mL (inactive) | < 0.01 | 0.01 (≈ 0.0323 µM) |
| N#C/C(=C\c1ccc([N+](=O)[O-])o1)c1nc2ccccc2[nH]1 | 0.14 µg/mL (inactive) (≈ 0.5 µM) | 0.08 (≈ 0.285 µM) | 0.12 (≈ 0.428 µM) |
| O=c1[nH]c2c(s1)C(c1cccnc1)C1C3CCC(C3)C1S2 (stereo not drawn) | 21.7 µg/mL (≈ 68.6 µM) | 24 (≈ 75.8 µM) | 21.8 (≈ 68.9 µM) |
| CC(=O)c1ccc(N2CCN(S(=O)(=O)c3ccc4c(c3)CC(=O)N4)CC2)cc1 | 3.5 µg/mL (inactive) (≈ 8.76 µM) | 3.2 (≈ 8.01 µM) | 3.7 (≈ 9.26 µM) |
| CCCC(=O)Nc1cccc(NC(=O)c2ccccc2Br)c1 | > 36 µg/mL | > 36 | > 36 |
| Cc1ccc(-n2c(N)c(C#N)c(-c3ccccc3)c(C#N)c2=O)cc1 | 0.84 µg/mL (inactive) (≈ 2.57 µM) | 0.79 (≈ 2.42 µM) | 0.93 (≈ 2.85 µM) |
| Cc1ccc(C)c(OCCn2cc(C(=O)O)c3ccccc32)c1 | 20.1 µg/mL (≈ 65 µM) | 0.19 (≈ 0.614 µM) | 0.34 (≈ 1.1 µM) |
| CCCN1CNc2c(c(=O)[nH]c(=S)n2CCc2ccc(OC)c(OC)c2)C1 | > 39 µg/mL | > 39 | > 39 |
| O=C(O)c1cccnc1SCCc1ccccc1 | > 26 µg/mL | > 26 | > 26 |
| O=c1[nH]c(SCc2ccc(Cl)cc2)nc2c1CCC2 | 0.94 µg/mL (inactive) (≈ 3.21 µM) | 0.45 (≈ 1.54 µM) | 0.52 (≈ 1.78 µM) |
| CCOc1ccc(-c2nc(-c3ccncc3)no2)cc1OCC | 1.3 µg/mL (inactive) (≈ 4.18 µM) | 1.1 (≈ 3.53 µM) | 1.3 (≈ 4.18 µM) |
| COc1ccccc1N(/N=C1\Sc2ccccc2C1=O)C(C)=O | 2.4 µg/mL (inactive) (≈ 7.35 µM) | 2.4 (≈ 7.35 µM) | 2.7 (≈ 8.27 µM) |
| CCc1nnc(NC(=O)c2ccc(NS(=O)(=O)c3ccccc3)cc2)s1 | 0.78 µg/mL (inactive) (≈ 2.01 µM) | 0.09 (≈ 0.232 µM) | 0.16 (≈ 0.412 µM) |
| Cn1cnc([N+](=O)[O-])c1Sc1ncnc2nc[nH]c12 | > 27 µg/mL | > 27 | > 27 |

| Structure (SMILES) | solubility | solubility [1] [µg/mL] | solubility [2] [µg/mL] |
| --- | --- | --- | --- |
| O=C1NCCCc2c1oc1ccc(O)cc21 | > 22 µg/mL | > 22 | > 22 |
| CCN1CCN(c2nc3ccccc3nc2C(C#N)C(=O)OC2CCCCC2)CC1 (stereo not drawn) | 25.8 µg/mL (≈ 63.3 µM) | > 40 | > 40 |
| C/C=C/Cn1c(SCCCc2ccccc2)nc2c1c(=O)[nH]c(=O)n2C | 0.39 µg/mL (inactive) (≈ 1.05 µM) | 0.24 (≈ 0.648 µM) | 0.31 (≈ 0.837 µM) |
| CN(C)C1=C(Cl)C(=O)N(c2ccc(Cl)c(Cl)c2)C1=O | < 0.01 µg/mL (inactive) | 0.06 (≈ 0.188 µM) | 0.12 (≈ 0.375 µM) |
| CS(=O)(=O)c1ccc(C(=O)OCC(=O)NC23CC4CC(CC(C4)C2)C3)cc1[N+](=O)[O-] | 3 µg/mL (inactive) (≈ 6.87 µM) | 1.8 (≈ 4.12 µM) | 2.5 (≈ 5.73 µM) |
| COc1ccc(Sc2ccc(NC(=O)c3ccccc3Cl)cc2C#N)cc1 | 0 µg/mL (inactive) | 0.01 (≈ 0.0253 µM) | < 0.01 |
| O=c1oc2c(O)c(O)cc3c(=O)oc4c(O)c(O)cc1c4c23 | > 30 µg/mL | 7.9 (≈ 26.1 µM) | > 30 |
| O=C(O)c1ccc(N2C(=O)/C(=C/c3ccc(-c4ccc([N+](=O)[O-])cc4)o3)C=C2c2ccccc2)cc1 | 0.79 µg/mL (inactive) (≈ 1.65 µM) | 0.59 (≈ 1.23 µM) | 13.4 (≈ 28 µM) |
| COc1ccc(N(C(=O)CCl)C(C(=O)NCCc2ccccc2)c2cccs2)cc1Cl (stereo not drawn) | 1.2 µg/mL (inactive) (≈ 2.51 µM) | 0.61 (≈ 1.28 µM) | 0.86 (≈ 1.8 µM) |
| CCCOc1ccc(-c2nc(OC)c3ccccc3n2)cc1 | 0.02 µg/mL (inactive) (≈ 0.0679 µM) | 0.05 (≈ 0.17 µM) | < 0.01 |
| C=CCn1c(SCC(=O)c2ccc(O)c(O)c2)nnc1-c1ccccc1OC | 24 µg/mL (≈ 60.4 µM) | 4.5 (≈ 11.3 µM) | 5.3 (≈ 13.3 µM) |
| Brc1cc2c(cc1C1Nc3ccccc3C3C=CCC31)OCO2 (stereo not drawn) | < 0.01 µg/mL (inactive) | < 0.01 | 0.04 (≈ 0.108 µM) |
| COc1ccc(C2CC(c3ccccc3)=NN2c2ccc(S(N)(=O)=O)cc2)cc1 (stereo not drawn) | 0.05 µg/mL (inactive) (≈ 0.123 µM) | 0.06 (≈ 0.147 µM) | 0.04 (≈ 0.0982 µM) |
| NC(=O)C1CCN(c2nc(-c3ccc(Br)cc3)cs2)CC1 | 0.12 µg/mL (inactive) (≈ 0.328 µM) | 0.14 (≈ 0.382 µM) | 0.14 (≈ 0.382 µM) |
| COc1ccc(S(=O)(=O)N2CCN(S(=O)(=O)c3ccc4c(c3)OCCO4)CC2)cc1 | < 0.1 µg/mL (inactive) | 0.13 (≈ 0.286 µM) | < 0.1 |
| COC(=O)c1ccccc1NC(=O)c1ccc(F)cc1 | 0.69 µg/mL (inactive) (≈ 2.53 µM) | 0.85 (≈ 3.11 µM) | 0.9 (≈ 3.29 µM) |
| Cc1ccc(S(=O)(=O)NCc2ccc(C(=O)NCCN(Cc3ccccc3)C(C)C)cc2)cc1 | 19.6 µg/mL (≈ 40.9 µM) | > 47 | 34.7 (≈ 72.3 µM) |
| O=C(CCNS(=O)(=O)c1cccc2nsnc12)N1CCN(c2ccccn2)CC1 | > 43 µg/mL | 35.8 (≈ 82.8 µM) | 35.5 (≈ 82.1 µM) |
| CSc1nc(-c2ccc(C)cc2)nc(C(Cl)Cl)n1 | 0.01 µg/mL (inactive) (≈ 0.0333 µM) | 0.02 (≈ 0.0666 µM) | 0.01 (≈ 0.0333 µM) |
| Cc1ccc(S(=O)(=O)C(c2ccccc2)c2c(C)noc2C)cc1 (stereo not drawn) | 16.5 µg/mL (≈ 48.3 µM) | 15.5 (≈ 45.4 µM) | 16.9 (≈ 49.5 µM) |
| Cc1nc(SCc2nc3ccccc3[nH]2)c2oc3ccccc3c2n1 | 0.11 µg/mL (inactive) (≈ 0.318 µM) | 0.26 (≈ 0.751 µM) | 0.22 (≈ 0.635 µM) |
| CCc1oc2ccccc2c1C(=O)c1cc(Br)c(O)c(Br)c1 | > 42 µg/mL | 0.18 (≈ 0.424 µM) | 26.1 (≈ 61.5 µM) |
